{"source": "paper PMC9284842", "about": "“Allosteric activation of the metabolic enzyme GPD1 inhibits bladder cancer growth via the lysoPC-PAFR-TRPV2 axis” (Journal of Hematology & Oncology, 2022)", "key": {"[1]": {"target": "T1, GPD1 (Homo sapiens, UniProt P21695)", "T1 construct": "purchased recombinant protein (Proteintech Ag4471); Red-NHS dye labelled for MST; source of enzyme in activity assay not restated", "T1 sequence (P21695 1-349)": "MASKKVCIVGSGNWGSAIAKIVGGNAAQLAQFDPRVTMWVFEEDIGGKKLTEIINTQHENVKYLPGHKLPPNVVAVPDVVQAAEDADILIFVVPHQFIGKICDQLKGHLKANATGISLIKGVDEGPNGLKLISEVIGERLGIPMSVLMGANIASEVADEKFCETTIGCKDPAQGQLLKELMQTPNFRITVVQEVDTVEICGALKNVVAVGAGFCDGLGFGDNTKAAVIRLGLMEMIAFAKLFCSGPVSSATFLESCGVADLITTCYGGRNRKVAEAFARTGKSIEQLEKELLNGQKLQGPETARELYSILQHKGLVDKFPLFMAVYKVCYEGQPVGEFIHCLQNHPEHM", "assay": "microscale thermophoresis (Monolith NT.[…], Hill fit)", "format": "binding"}, "[2]": {"target": "T1, GPD1", "assay": "NADH absorbance at […] nm, initial rate of DHAP reduction", "format": "biochemical", "conditions": "200 uM NADH, 8 mM DHAP, 1 uM GPD1, 20 mM TEA, 0.1 mg/mL BSA, I = 0.12 (NaCl); activator, proposed allosteric"}}, "data": [{"compound": "COc1cc(O)c2c(c1)oc(=O)c1c3cc(O)c(O)cc3oc21", "note": "[wedelolactone]", "values": [{"measurement": "Kd", "setting": "[1]", "result": 0.505, "unit": "µM"}, {"measurement": "activation", "setting": "[2]", "result": "wedelolactone (WE) from Bioactive Compound Library Plus in MedChemExpress LLC had substantial activity"}]}]}
